Reference: patent US9562044B2, “2-acylaminothiazole derivative or salt thereof” (ASTELLAS PHARMA INC., priority 2013, dated 2017)

Tests used:
isolated rat bladder = test: Transmural electrical field stimulation-induced contraction of isolated rat bladder; conditions: AUC of contractile response, value before treatment = 100%, SD female rat bladder strip, read-out: Enhancement rate of isolated bladder contraction (% of pre)
Protocol: Effects on Transmural Electrical Field Stimulation-Induced Contraction of Isolated Rat Bladder
As an effect on the nerve stimulation-dependent bladder contraction in vitro, the effect of the Example compound of the present invention in the transmural electrical field stimulation-induced contraction of isolated rat bladder was measured by the following method. That is, from the bladder isolated from a Spraque-Dawley (SD) female rat (Japan SLC, Inc.), a longitudinal bladder strip having a width of about 2 mm and a length of about 10 mm was prepared. The prepared bladder strip was suspended in an organ bath filled with 10 mL of a Krebs-Henseleit solution. The Krebs-Henseleit solution was bubbled with 95% O2 and 5% CO2, and kept at 37° C. After stabilization at an initial tension of 1 g, contraction was induced twice with 60 mM KCl. The strip was washed with the Krebs-Henseleit solution and stabilized, and then contraction was induced with transmural electrical field stimulation at 20 V (stimulation frequency of 8 Hz, pulse width of 0.3 msec, and stimulation time of 10 seconds) by an electrical stimulation device (Nihon Kohden Corporation). At an interval of 2 minutes, transmural electrical field stimulation was repeated and the voltage was adjusted to make the contractile amplitude about 50% of the contractile response by 20 V. After stabilization of the contraction by the transmural electrical field stimulation, 10 μL of the test substance (final concentrations of 3 μM, 10 μM, and 30 μM), which had been dissolved in 100% dimethylsulfoxide in advance was added. The test substance was cumulatively administered at the next concentration after the contractile response at a lower concentration had been stabilized. The responses were put into a personal computer through PowerLab (registered trademark) (AD Instruments), and analyzed with LabChart (registered trademark) (AD Instruments). The area under the response of each contractile response (area under curve, AUC) was calculated and the value before the treatment with the test substance was set to 100%. Based on this, the enhancement rate of the isolated bladder contraction (% of pre) after the treatment with the test substance was calculated.
The enhancement rates of the isolated bladder contraction due to several 10 μM Example compounds which are the compounds of the formula (I) are shown in Table 2.

human c-Mpl receptor [1] = molecular target: T1, human c-Mpl receptor (Homo sapiens, UniProt P40238); test: Human c-Mpl-introduced Ba/F3 cell proliferative activity; type: cell-based; conditions: concentration showing 30% proliferation; 100% = positive control at 1 μM
T1 construct: expressed in transfected cells
T1 sequence (P40238 26-635): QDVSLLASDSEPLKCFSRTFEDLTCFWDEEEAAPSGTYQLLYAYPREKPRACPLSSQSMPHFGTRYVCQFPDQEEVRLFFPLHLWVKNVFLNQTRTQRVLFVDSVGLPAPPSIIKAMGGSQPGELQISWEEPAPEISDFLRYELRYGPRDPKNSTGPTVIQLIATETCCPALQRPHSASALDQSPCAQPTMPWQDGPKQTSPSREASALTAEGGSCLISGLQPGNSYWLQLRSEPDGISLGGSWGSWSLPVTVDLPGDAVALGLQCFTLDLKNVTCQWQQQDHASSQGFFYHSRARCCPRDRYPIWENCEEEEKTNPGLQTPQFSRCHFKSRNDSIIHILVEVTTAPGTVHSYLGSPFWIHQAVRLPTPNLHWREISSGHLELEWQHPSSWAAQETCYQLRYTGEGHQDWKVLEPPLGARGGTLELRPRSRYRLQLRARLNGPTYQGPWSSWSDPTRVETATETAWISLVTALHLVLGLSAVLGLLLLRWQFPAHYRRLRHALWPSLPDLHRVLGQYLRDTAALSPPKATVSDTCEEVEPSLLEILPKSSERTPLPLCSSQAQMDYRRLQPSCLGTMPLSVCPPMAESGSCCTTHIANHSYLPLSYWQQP
Protocol: Evaluation of Human c-Mpl-Introduced Ba/F3 Cell Proliferative Activity
The human c-Mpl-introduced Ba/F3 cell proliferative activity was measured by the following method.
As a positive control, 1-(5-{[4-(4-chloro-2-thienyl)-5-{[(2R)-2-methylpyrrolidin-1-yl]methyl}-1,3-thiazol-2-yl]carbamoyl}-3-fluoropyridin-2-yl)piperidine-4-carboxylic acid hydrochloride, which is disclosed as Example 315 in Patent Document 1 and represented by the formula A1, was used. It is known that the compound has a good human c-Mpl-introduced Ba/F3 cell proliferative activity as disclosed in Table 1 of Patent Document 1.
a) Construction of Human c-Mpl Receptor Expression Vector
A human c-mpl receptor gene (GenBank Accession No. M90102.1) was introduced into an expression vector pEF-BOS (Nucleic Acids Res. 18, 5322, 1990).
b) Construction of Cell Stably Expressing Human c-Mpl Receptor
A human c-Mpl receptor expression vector was introduced into a Ba/F3 cell (RIKEN BRC: RCB0805). For the introduction, an electroporation method was used. pEF-BOS-c-mpl (10 μg), pSV2bsr (1 μg, Kaken Pharmaceutical Co., Ltd.) and 1×10^7 Ba/F3 cells were put into a cuvette having a gap width of 0.4 cm, and electroporated under the conditions of 1.5 kV (25 μF) by a Gene Pulser (registered trademark) (BioRad). The cells were cultured in an RPMI-1640 culture medium containing 0.5% WEHI conditioned media (BD Biosciences) and 10% fetal bovine serum for 3 days, and then cultured in an RPMI-1640 culture medium, to which 10 μg/mL blasticidin had been further added, for 30 days to acquire a drug-resistant clone.
c) Measurement of Cell Proliferative Activity
The cells obtained in b) above was cultured in an RPMI-1640 culture medium containing 0.5% WEHI conditioned media, 10% fetal bovine serum, and used. On the day before the experiment, test substances (final concentration of 100 nM to 10 μM) which had been dissolved in a culture medium for assay (RPMI-1640 culture medium containing 10% fetal bovine serum) were added to a 384-well plate (Lot No. 781185, Greiner Bio-One). The cells in the culture medium that had been replaced with a culture medium for assay were dispensed into a 384-well plate, to which the test substances had been added in advance, to 1×10^4 cells/well, and cultured at 37° C. and 5% CO2 overnight. On the experiment day, a solution of a Cell Counting Kit (Dojindo Laboratories) was added to each well of the 384-well plate and cultured at 37° C. and 5% CO2 for about 5 hours. Thereafter, the absorbance (absorption wavelength of 450 nm) of each well was measured using Safire^2™ (TECAN) and used as the index of the number of cells. Further, as a negative control, a well in which the test substance had been not added was prepared.
The absorbance of the well without the test substance was set to 0%, and the absorbance in the case where the positive control was added at a final concentration of 1 μM was set to 100%. From the absorbance in the case where the test substance had been added, a cell proliferation rate (%) was calculated. From the obtained results, the test substance concentration showing 30% proliferation was calculated as an EC30 value by a logistic regression method.

human c-Mpl receptor [2] = molecular target: T1, human c-Mpl receptor; conditions: positive control; as disclosed in Patent Document 1; cited from earlier work

Row | melting point [°C] | Compound | further results
1 | 194 | CC[C@@H]1CCCN1Cc1sc(NC(=O)c2cnc(N3CCC(C(=O)O)CC3)cn2)nc1-c1ccc(OC)c(C(F)(F)F)c1 [Example 8, 1-{5-[(5-{[(2R)-2-ethylpyrrolidin-1-yl]methyl}-4-[4-methoxy-3-(trifluoromethyl)phenyl]-1,3-thiazol-2-yl)carbamoyl]pyrazin-2-yl}piperidine-4-carboxylic acid] | –
2 | – | COc1ccc(-c2nc(NC(=O)c3cnc(N4CCC(C(=O)O)CC4)cn3)sc2CN2CCCC2C(C)C)cc1C(F)(F)F (stereo not drawn) [Example 188] | activity at 10 µM (isolated rat bladder): 128%; Test Example 2 EC30 (human c-Mpl receptor [1]): >10 µM
3 | 201 | C[C@@H]1CCCN1Cc1sc(NC(=O)c2cnc(N3CCC(C(=O)O)CC3)cn2)nc1-c1cc(Cl)cs1 [Example 206, 1-(5-{[4-(4-chloro-2-thienyl)-5-{[(2R)-2-methylpyrrolidin-1-yl]methyl}-1,3-thiazol-2-yl]carbamoyl}pyrazin-2-yl)piperidine-4-carboxylic acid] | –
4 | 136 | COc1cc(-c2nc(NC(=O)c3cnc(N4CCC(C(=O)O)CC4)cn3)sc2CN2CCCC[C@H]2C)cc(C(F)(F)F)c1 [Example 207, 1-{5-[(4-[3-methoxy-5-(trifluoromethyl)phenyl]-5-{[(2R)-2-methylpiperidin-1-yl]methyl}-1,3-thiazol-2-yl)carbamoyl]pyrazin-2-yl}piperidine-4-carboxylic acid] | –
5 | – | C[C@@H]1CCCN1Cc1sc(NC(=O)c2cnc(N3CCC(C(=O)O)CC3)c(F)c2)nc1-c1cc(Cl)cs1.Cl [Example A1, 1-(5-{[4-(4-chloro-2-thienyl)-5-{[(2R)-2-methylpyrrolidin-1-yl]methyl}-1,3-thiazol-2-yl]carbamoyl}-3-fluoropyridin-2-yl)piperidine-4-carboxylic acid hydrochloride] | Human c-Mpl-introduced Ba/F3 cell proliferative activity (Table 1 of Patent Document 1) (human c-Mpl receptor [2]): good
